Assay [1] is described as follows: DPPH radical scavenging activity assay. To be noted: 30 min, 517 nm. Here is the method:
The free radical scavenging activity was evaluated as described previously. Five hundred microlilters of the different concentration of test samples were mixed with 200 μl of 0.5 mM DPPH methanol solution and 500 μl of 0.1 M sodium acetate buffer (pH 5.5). After shaking, the mixture was incubated in the dark at room temperature for 30 min, and then the absorbance was measured at 517 nm. BHT was used as a positive control, while water and methanol were used as controls for calculation.
(§1) The ability of the extracts to scavenge DPPH, ABTS^·+, PMS-NADH radicals were calculated by following formula:
(§2) Radical scavenging (%) = [(O.Dcontrol – O.Dsample)/ O.Dcontrol] x 100,
(§3) where O.D is the optical density in the presence or absence of the samples.
In general terms: DPPH is a stable violet radical that fades when it is reduced.

Assay [2] is described as follows: PMS-NADH system superoxide-radical scavenging assay. To be noted: 560 nm. Here is the method:
The superoxide scavenging activity was assayed following the method of Lau et al. with minor modifications. The reaction mixture contained 0.5 ml of 105 μM NADH, 0.5 ml of 66 μM NBT dissolved in 0.1 M phosphate buffer (pH 7.4) and 0.1 ml sample in different concentrations. The reaction was initiated by adding 0.5 ml of 30 μM PMS into the reaction mixture. Methanol and water were used as a control and BHT as a positive control. After 10 min, the reaction mixture reached to stable color, measurement of absorbance was conducted at 560 nm.
as §1, §2, §3

Assay [3] addresses Collagenase from Clostridium histolyticum (ChC). In words: Collagenase inhibition assay (FALGPA substrate). Type of assay: biochemical. Conditions: plant parts: aqueous extract. Here is the method:
Collagenase inhibition assay was performed by the method described previously which based on the hydrolysis of N-[3-(2-furyl)acryloyl]-Leu-Gly-Pro-Ala (FALGPA) by collagenase to produce FA-Leu and Gly-Pro-Ala. The assay was performed in 50 mM Tricine buffer (400 mM NaCl and 10 mM CaCl2, pH 7.5). Collagenase from Clostridium histolyticum (ChC) was dissolved in the buffer for use at an initial concentration of 0.8 units/ ml. The synthetic substrate, FALGPA, was dissolved in the Tricine buffer to 2 mM. Sample extracts were incubated with the enzyme in the buffer for 15 min before adding substrate to start reaction. The final reaction mixture (150 μl total volume) contained Tricine buffer, 0.8 mM of FALGPA, 0.1 units of ChC and 25 μg of test extracts. Controls were performed with water and methanol, while oleanolic acid as a positive control. After adding substrate for 20 min, collagenase activity was measured at 340 nm.
The percentage inhibition for collagenase, elastase and hyaluronidase assays were calculated by:
Enzyme inhibition activity (%) = (1– B/A) x 100, where A is the enzyme activity without sample and B is the activity in presence of the sample.

Assay [4] deals with T1, elastase from porcine pancreas (Sus scrofa, UniProt P00772).
T1 construct: from tissue; host or cells: porcine pancreas
T1 sequence (P00772 27-266): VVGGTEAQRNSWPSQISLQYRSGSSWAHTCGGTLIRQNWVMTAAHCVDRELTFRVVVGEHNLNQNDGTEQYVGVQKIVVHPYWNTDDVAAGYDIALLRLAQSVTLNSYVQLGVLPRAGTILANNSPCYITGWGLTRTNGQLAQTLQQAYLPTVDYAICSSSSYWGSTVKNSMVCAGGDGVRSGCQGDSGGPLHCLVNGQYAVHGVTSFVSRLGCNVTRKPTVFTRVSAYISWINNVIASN
In words: Elastase inhibition assay (SANA substrate). Type of assay: biochemical. Conditions: plant parts: aqueous extract. The source says:
The inhibitory activity determined the intensity of color released during cleavage of SANA by the action of elastase.

Assay [5] deals with T2, hyaluronidase from bovine test (Bos taurus, UniProt Q2YDK3).
T2 construct: from tissue; host or cells: bovine testes (printed 'bovine test')
T2 sequence (Q2YDK3 36-553): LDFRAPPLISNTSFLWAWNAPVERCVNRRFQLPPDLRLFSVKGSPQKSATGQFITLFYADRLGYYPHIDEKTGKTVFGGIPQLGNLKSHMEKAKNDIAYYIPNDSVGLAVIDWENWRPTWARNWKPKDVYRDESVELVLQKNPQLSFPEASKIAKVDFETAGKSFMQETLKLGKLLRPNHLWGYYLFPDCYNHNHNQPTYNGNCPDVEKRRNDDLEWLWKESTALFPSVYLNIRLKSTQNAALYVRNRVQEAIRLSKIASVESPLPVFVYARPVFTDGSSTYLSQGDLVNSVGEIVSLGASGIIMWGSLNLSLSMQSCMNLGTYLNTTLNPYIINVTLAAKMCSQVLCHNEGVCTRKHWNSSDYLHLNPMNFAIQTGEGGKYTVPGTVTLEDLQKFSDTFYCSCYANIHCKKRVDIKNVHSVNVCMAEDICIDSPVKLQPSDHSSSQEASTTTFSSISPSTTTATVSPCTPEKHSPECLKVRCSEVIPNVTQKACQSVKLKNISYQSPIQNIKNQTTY
In words: Hyaluronidase inhibition assay. Type of assay: biochemical. To be noted: plant parts: aqueous extract.
Procedure: Hyaluronidase inhibitory assay was performed by the method described previously [21] which depends on the fact that substance forms a precipitate with protein in an acidic solution. A test sample of 5 μl was pre-incubated with hyaluronidase from bovine test (1.50 units in 100 μl), sodium phosphate buffer 20 mM (pH 7.0) with sodium chloride 77 mM and bovine serum albumin (BSA) 0.01% for 10 min at 37 °C. […] It was allowed to stand at room temperature for 10 min and then the absorbance was measured at 600 nm. Oleanolic acic was used as positive control and the sample solutions were used as controls.

Assay [6] can be described thus: Total antioxidant activity (ABTS) assay. To be noted: ABTS radical scavenging, 6 min, 734 nm. Here is the method:
The total antioxidant activity of test sample was measured with modified method as described previously. ABTS^·+ solution was generated by mixing 7 mM ABTS and 2.45 mM potassium persulfate (K2S2O8) in water, which was placed in the dark at room temperature for 16 h to give the complete oxidation of ABTS. Before using, the ABTS^·+ solution was diluted with water to get an absorbance of 0.700 ± 0.050 at 734 nm. Briefly, 1 ml of ABTS^·+ solution was added to 30 μl of test samples and mixed thoroughly. BHT was used as positive control and the sample solutions were used as controls. The reactive mixture was incubated at room temperature for 6 min and the absorbance was immediately recorded at 734 nm.
as §1, §2, §3

The source of these data is publication PMC3419607, “Effect of Alpinia zerumbet components on antioxidant and skin diseases-related enzymes” (BMC Complementary and Alternative Medicine, 2012).

pIC50: −log10 of the molar value. ≈ marks a conversion by molar mass, not a printed value.

Consider `COc1cc(/C=C/c2ccccc2)oc(=O)c1` [DK, 5,6-dehydrokawain], for which the “Inhibitory effect (IC50) DPPH” value in assay [1] was determined as 122.14 ± 1.40 µg/mL. Moreover, the “Inhibitory effect (IC50) PMS-NADH” value in assay [2] was 127.78 ± 4.75 µg/mL. Further, the IC50 collagenase inhibition in assay [3] is 24.93 ± 0.97 µg/mL (≈ 109 µM). Besides, the pIC50 in assay [4] and in assay [5] was 4.07 each time. Also, the “Inhibitory effect (IC50) ABTS” value in assay [6] was 110.08 ± 3.34 µg/mL.
Molecule `CC1(C)CC[C@]2(C(=O)O)CC[C@]3(C)C(=CC[C@@H]4[C@@]5(C)CC[C@H](O)C(C)(C)[C@@H]5CC[C@]43C)[C@@H]2C1` [oleanolic acid, reference compound] yielded an IC50 collagenase inhibition in assay [3] of 17.95 ± 0.23 µg/mL (≈ 39.3 µM).
Turning to `Cc1cc(C(C)(C)C)c(O)c(C(C)(C)C)c1` [BHT, tert-butyl hydroxytoluene, reference compound], the “Inhibitory effect (IC50) DPPH” value in assay [1] amounted to 11.74 ± 0.15 a ^1 μg/mL. Further, the “Inhibitory effect (IC50) PMS-NADH” value in assay [2] is recorded as 24.80 ± 0.98 a μg/mL. For the same molecule, in assay [6], the “Inhibitory effect (IC50) ABTS” value was determined as 14.26 ± 0.16 a μg/mL.
